# Laboratory results as given in patent US20220096516A1, “OLIGONUCLEOTIDE MOLECULE AND APPLICATION THEREOF IN TUMOR THERAPY” (Ractigen Therapeutics, priority 2019, published 2022).
# d = 2'-deoxy (DNA); r = 2'-OH (RNA)
# System: LHPP gene
# Test: High-throughput screening of saRNAs targeting LHPP promoter: LHPP mRNA by one-step RT-qPCR in Huh7 cells
# Format: cell-based, human
# Conditions: 10 nM saRNA, 72 hours, relative to control (Mock)
# How it was run: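 Huh7 cells were transfected with 10 nM saRNA using RNAiMax and lysed 72 h later. LHPP mRNA was quantified by one-step RT-qPCR in triplicate wells. Expression was normalised to HPRT1 and TBP and given as fold change versus mock-transfected cells.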
Substance,Fold of changes in relative LHPP mRNA expression level,Fold of changes in relative LHPP mRNA expression level (log2)
"RAG7-195: saRNA duplex; sense AGGUGCCUUCUUGUCUCAATT (SEQ ID NO: 28), antisense UUGAGACAAGAAGGCACCUTT (SEQ ID NO: 192) (sugars from the 5' end r19 d2, backbone not given here)",1.51 fold,0.59 log2
"RAG7-670: saRNA duplex; sense CAGGGCUGUUAUCUGCAUATT (SEQ ID NO: 136), antisense UAUGCAGAUAACAGCCCUGTT (SEQ ID NO: 300) (sugars from the 5' end r19 d2, backbone not given here)",1.15 fold,0.20 log2
"RAG7-96: saRNA duplex; sense GAAAAGGACACCGUUUCAGTT (SEQ ID NO: 105), antisense CUGAAACGGUGUCCUUUUCTT (SEQ ID NO: 269) (sugars from the 5' end r19 d2, backbone not given here)",1.21 fold,0.27 log2
"RAG7-134: saRNA duplex; sense UGCUCUUUGUCCGCUGAUCTT (SEQ ID NO: 75), antisense GAUCAGCGGACAAAGAGCATT (SEQ ID NO: 239) (sugars from the 5' end r19 d2, backbone not given here)",1.28 fold,0.36 log2
"RAG7-736: saRNA duplex; sense UGGGUUUAACGCAUUGUGATT (SEQ ID NO: 131), antisense UCACAAUGCGUUAAACCCATT (SEQ ID NO: 295) (sugars from the 5' end r19 d2, backbone not given here)",1.16 fold,0.22 log2
"RAG7-98: saRNA duplex; sense CCGAAAAGGACACCGUUUCTT (SEQ ID NO: 145), antisense GAAACGGUGUCCUUUUCGGTT (SEQ ID NO: 309) (sugars from the 5' end r19 d2, backbone not given here)",1.14 fold,0.19 log2
"RAG7-879: saRNA duplex; sense GUAAAGUGUUCUCGUUUCUTT (SEQ ID NO: 40), antisense AGAAACGAGAACACUUUACTT (SEQ ID NO: 204) (sugars from the 5' end r19 d2, backbone not given here)",1.44 fold,0.53 log2
"RAG7-168: saRNA duplex; sense UGACCUUUCUUAGGGACUUTT (SEQ ID NO: 91), antisense AAGUCCCUAAGAAAGGUCATT (SEQ ID NO: 255) (sugars from the 5' end r19 d2, backbone not given here)",1.24 fold,0.31 log2
"RAG7-839: saRNA duplex; sense CGAGGGGCCAUUGAGGAAATT (SEQ ID NO: 158), antisense UUUCCUCAAUGGCCCCUCGTT (SEQ ID NO: 322) (sugars from the 5' end r19 d2, backbone not given here)",1.11 fold,0.15 log2
"RAG7-148: saRNA duplex; sense UUUUCUGCUUUUCCUGCUCTT (SEQ ID NO: 67), antisense GAGCAGGAAAAGCAGAAAATT (SEQ ID NO: 231) (sugars from the 5' end r19 d2, backbone not given here)",1.30 fold,0.38 log2
"RAG7-185: saRNA duplex; sense UUGUCUCAAUUUGCCUUUGTT (SEQ ID NO: 116), antisense CAAAGGCAAAUUGAGACAATT (SEQ ID NO: 280) (sugars from the 5' end r19 d2, backbone not given here)",1.19 fold,0.25 log2
"RAG7-851: saRNA duplex; sense CUUGAAAGGUUCCGAGGGGTT (SEQ ID NO: 163), antisense CCCCUCGGAACCUUUCAAGTT (SEQ ID NO: 327) (sugars from the 5' end r19 d2, backbone not given here)",1.10 fold,0.14 log2
"RAG7-150: saRNA duplex; sense UGUUUUCUGCUUUUCCUGCTT (SEQ ID NO: 32), antisense GCAGGAAAAGCAGAAAACATT (SEQ ID NO: 196) (sugars from the 5' end r19 d2, backbone not given here)",1.48 fold,0.56 log2
"RAG7-29: saRNA duplex; sense CACCCGGUCUUCUUGCCCUTT (SEQ ID NO: 79), antisense AGGGCAAGAAGACCGGGUGTT (SEQ ID NO: 243) (sugars from the 5' end r19 d2, backbone not given here)",1.28 fold,0.35 log2
"RAG7-826: saRNA duplex; sense AGGAAACUCCUCCCUUUUATT (SEQ ID NO: 157), antisense UAAAAGGGAGGAGUUUCCUTT (SEQ ID NO: 321) (sugars from the 5' end r19 d2, backbone not given here)",1.11 fold,0.15 log2
"RAG7-829: saRNA duplex; sense UUGAGGAAACUCCUCCCUUTT (SEQ ID NO: 29), antisense AAGGGAGGAGUUUCCUCAATT (SEQ ID NO: 193) (sugars from the 5' end r19 d2, backbone not given here)",1.50 fold,0.59 log2
"RAG7-687: saRNA duplex; sense AUGCAUCCUCAUCUAUGCATT (SEQ ID NO: 162), antisense UGCAUAGAUGAGGAUGCAUTT (SEQ ID NO: 326) (sugars from the 5' end r19 d2, backbone not given here)",1.10 fold,0.14 log2
"RAG7-715: saRNA duplex; sense GUCCCGUUUUCUUCUCAGCTT (SEQ ID NO: 148), antisense GCUGAGAAGAAAACGGGACTT (SEQ ID NO: 312) (sugars from the 5' end r19 d2, backbone not given here)",1.13 fold,0.18 log2
"RAG7-143: saRNA duplex; sense UGCUUUUCCUGCUCUUUGUTT (SEQ ID NO: 102), antisense ACAAAGAGCAGGAAAAGCATT (SEQ ID NO: 266) (sugars from the 5' end r19 d2, backbone not given here)",1.21 fold,0.28 log2
"RAG7-722: saRNA duplex; sense UGUGAUAGUCCCGUUUUCUTT (SEQ ID NO: 135), antisense AGAAAACGGGACUAUCACATT (SEQ ID NO: 299) (sugars from the 5' end r19 d2, backbone not given here)",1.15 fold,0.21 log2
"RAG7-147: saRNA duplex; sense UUUCUGCUUUUCCUGCUCUTT (SEQ ID NO: 66), antisense AGAGCAGGAAAAGCAGAAATT (SEQ ID NO: 230) (sugars from the 5' end r19 d2, backbone not given here)",1.31 fold,0.39 log2
"RAG7-745: saRNA duplex; sense AAAACCUCCUGGGUUUAACTT (SEQ ID NO: 154), antisense GUUAAACCCAGGAGGUUUUTT (SEQ ID NO: 318) (sugars from the 5' end r19 d2, backbone not given here)",1.11 fold,0.15 log2
"RAG7-186: saRNA duplex; sense CUUGUCUCAAUUUGCCUUUTT (SEQ ID NO: 78), antisense AAAGGCAAAUUGAGACAAGTT (SEQ ID NO: 242) (sugars from the 5' end r19 d2, backbone not given here)",1.28 fold,0.35 log2
"RAG7-676: saRNA duplex; sense UCUAUGCAGGGCUGUUAUCTT (SEQ ID NO: 83), antisense GAUAACAGCCCUGCAUAGATT (SEQ ID NO: 247) (sugars from the 5' end r19 d2, backbone not given here)",1.26 fold,0.33 log2
"RAG7-94: saRNA duplex; sense AAAGGACACCGUUUCAGGGTT (SEQ ID NO: 13), antisense CCCUGAAACGGUGUCCUUUTT (SEQ ID NO: 177) (sugars from the 5' end r19 d2, backbone not given here)",1.64 fold,0.72 log2
"RAG7-832: saRNA duplex; sense CCAUUGAGGAAACUCCUCCTT (SEQ ID NO: 139), antisense GGAGGAGUUUCCUCAAUGGTT (SEQ ID NO: 303) (sugars from the 5' end r19 d2, backbone not given here)",1.14 fold,0.19 log2
"RAG7-741: saRNA duplex; sense CCUCCUGGGUUUAACGCAUTT (SEQ ID NO: 95), antisense AUGCGUUAAACCCAGGAGGTT (SEQ ID NO: 259) (sugars from the 5' end r19 d2, backbone not given here)",1.23 fold,0.30 log2
